Test [1] addresses T1, VAD (vanillyl-alcohol dehydrogenase from Marinicaulis flavus) (Hyphococcus luteus, UniProt A0A2S7K3M2, P151L).
T1 construct: gene CW354_13745; SUMO tag cleaved for crystals; covalent FAD on H387; dimer
The test is described as follows: X-ray structure of soaked crystal. The following applies: 1 mM eugenol soak, 2 min; active site, flavin si side. The format is binding.

Test [2] addresses T2, nsVAO (vanillyl-alcohol oxidase from Novosphingobium sp.) (Novosphingobium sp., UniProt A0A3N9RU39).
T2 construct: gene EH199_11270; SUMO tag cleaved for crystals; non-covalent FAD
T2 sequence (A0A3N9RU39 1-543): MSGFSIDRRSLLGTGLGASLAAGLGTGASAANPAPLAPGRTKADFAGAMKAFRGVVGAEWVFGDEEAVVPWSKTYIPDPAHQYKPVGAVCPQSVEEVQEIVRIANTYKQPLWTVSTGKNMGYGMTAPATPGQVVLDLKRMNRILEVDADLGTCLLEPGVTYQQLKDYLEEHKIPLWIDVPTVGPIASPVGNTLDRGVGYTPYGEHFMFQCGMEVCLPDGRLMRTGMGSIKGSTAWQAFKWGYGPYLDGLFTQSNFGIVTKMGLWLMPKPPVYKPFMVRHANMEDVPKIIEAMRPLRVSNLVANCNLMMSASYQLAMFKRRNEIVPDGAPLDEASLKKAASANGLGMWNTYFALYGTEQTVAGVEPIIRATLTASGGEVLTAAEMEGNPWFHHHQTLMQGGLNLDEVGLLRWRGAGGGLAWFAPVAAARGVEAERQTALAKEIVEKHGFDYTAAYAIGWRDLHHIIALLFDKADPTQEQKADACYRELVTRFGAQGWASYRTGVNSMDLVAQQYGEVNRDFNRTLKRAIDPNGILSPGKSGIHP
Kind of test: X-ray structure. The following applies: non-covalently bound FAD. The test is classed as binding.

For test [3], the target named is T3, VAD (vanillyl-alcohol dehydrogenase from Marinicaulis flavus) (Hyphococcus luteus, UniProt A0A2S7K3M2).
T3 construct: gene CW354_13745; SUMO tag cleaved for crystals; covalent FAD on H387; dimer
T3 sequence (A0A2S7K3M2 1-521): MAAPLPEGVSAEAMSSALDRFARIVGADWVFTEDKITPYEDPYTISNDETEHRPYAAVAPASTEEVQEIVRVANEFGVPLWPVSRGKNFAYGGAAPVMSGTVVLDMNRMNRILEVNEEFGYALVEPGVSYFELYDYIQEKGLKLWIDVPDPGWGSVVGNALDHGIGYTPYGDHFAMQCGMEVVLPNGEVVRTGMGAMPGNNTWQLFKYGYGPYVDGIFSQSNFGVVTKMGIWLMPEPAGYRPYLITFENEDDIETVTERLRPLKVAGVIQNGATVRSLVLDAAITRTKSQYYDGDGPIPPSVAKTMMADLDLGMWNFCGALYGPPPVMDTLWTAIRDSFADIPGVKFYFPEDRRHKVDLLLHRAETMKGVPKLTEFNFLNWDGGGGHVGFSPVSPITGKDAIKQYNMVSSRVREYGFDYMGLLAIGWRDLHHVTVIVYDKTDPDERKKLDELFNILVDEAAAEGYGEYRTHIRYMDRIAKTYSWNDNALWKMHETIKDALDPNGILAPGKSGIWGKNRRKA
The test is described as follows: X-ray structure. The format is binding. As to conditions: covalent (H387).

For test [4], the target named is T1, VAD (vanillyl-alcohol dehydrogenase from Marinicaulis flavus). Kind of test: anaerobic stopped-flow reductive half-reaction. The test is classed as biochemical. The following applies: 25 °C, 50 mM potassium phosphate pH 7.5, 150 mM NaCl, oxidized enzyme. From the text: (§1) anaerobic stopped-flow reductive half-reaction on VAD (vanillyl-alcohol dehydrogenase from Marinicaulis flavus)

Test [5] addresses T3, VAD (vanillyl-alcohol dehydrogenase from Marinicaulis flavus). The test is described as follows: anaerobic stopped-flow reductive half-reaction. The following applies: 25 °C, 50 mM potassium phosphate pH 7.5, 150 mM NaCl, oxidized enzyme. The format is biochemical.
Description: as §1

Test [6] deals with T2, nsVAO (vanillyl-alcohol oxidase from Novosphingobium sp.). The test is described as follows: X-ray structure of soaked crystal. The test is classed as binding. The following applies: […] vanillyl alcohol soak, […] min; active site.

T1 sequence (A0A2S7K3M2 entry or part of it P151L): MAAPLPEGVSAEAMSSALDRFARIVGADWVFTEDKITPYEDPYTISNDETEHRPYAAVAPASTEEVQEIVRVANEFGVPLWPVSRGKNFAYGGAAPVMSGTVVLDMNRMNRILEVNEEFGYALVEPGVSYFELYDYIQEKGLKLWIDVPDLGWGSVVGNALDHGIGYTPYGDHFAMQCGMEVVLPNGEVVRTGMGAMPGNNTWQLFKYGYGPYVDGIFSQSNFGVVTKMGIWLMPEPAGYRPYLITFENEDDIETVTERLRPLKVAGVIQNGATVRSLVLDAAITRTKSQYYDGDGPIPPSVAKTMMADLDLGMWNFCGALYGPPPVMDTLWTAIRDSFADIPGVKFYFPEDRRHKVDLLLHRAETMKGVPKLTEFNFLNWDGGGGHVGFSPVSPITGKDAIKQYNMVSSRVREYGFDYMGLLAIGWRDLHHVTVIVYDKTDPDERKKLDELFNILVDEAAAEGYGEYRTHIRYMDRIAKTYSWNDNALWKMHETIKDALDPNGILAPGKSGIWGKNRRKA

On to `C=CCc1ccc(O)c(OC)c1` [Eugenol], for which the “X-ray structure of soaked crystal” value in test [1] was “P151L VAD-eugenol, wild type nsVAO-vanillyl alcohol and T181D nsVAO-vanillin complexes were prepared by soaking crystals”.
Consider `Cc1cc2nc3c(=O)[nH]c(=O)nc-3n(C[C@H](O)[C@H](O)[C@H](O)COP(=O)(O)OP(=O)(O)OC[C@H]3O[C@@H](n4cnc5c(N)ncnc54)[C@H](O)[C@@H]3O)c2cc1C` [FAD], for which the X-ray structure entry is “Its crystal structure confirms that FAD is non-covalently bound” in test [2] and “FAD carbons are in yellow, wild-type carbons in orange” in test [3].
On to `COc1cc(CO)ccc1O` [Vanillyl alcohol], for which the dissociation constant Kd in test [4] was 1.06 ± 0.08 mM; in test [5] it was 24.2 ± 3.3 µM. In addition, in test [6], the “X-ray structure of soaked crystal” value is on record as “Vanillyl alcohol bound to wild type nsVAO is shown with blue carbons”.

The values above are taken from paper PMC7617285, “Dehydrogenase versus oxidase function: the interplay between substrate binding and flavin microenvironment” (ACS catalysis, 2025).
